Common to all, as to format: cell-based
For assay [1], the target named is T1, wild-type human cardiac sodium channel, hNav1.5 (Homo sapiens, UniProt Q14524). The experiment in a line: Peak INa screening assay (tonic block and use-dependent block). The method, then:
(§1) The cardiac late sodium current (Late INa) and peak sodium current (Peak INa) assays are performed on an automated electrophysiology platform, QPatch 16X or QPatch HT (Sophion Bioscience, Copenhagen, Denmark) using the whole cell patch clamp technique to measure currents through the cell membrane. The assay uses an HEK293 (human embryonic kidney) cell line heterologously expressing the wild-type human cardiac sodium channel, hNav1.5, purchased from Millipore (Billerica, Mass.). No beta subunits were coexpressed with the Na channel alpha subunit. Cells are maintained with standard tissue culture procedures and stable channel expression is maintained with 400 μg/mL Geneticin in the culture medium. Experiments are carried out at 23-25° C.
(§2) For both the Late INa and Peak INa assays, series resistance compensation is set to 100% and series resistance and whole-cell compensation are performed automatically. Currents are digitized at 25 kHz and low-pass filtered at 5 kHz and stored in the Sophion Bioscience Oracle database (Sophion Bioscience, Copenhagen, Denmark). Analysis is performed using QPatch Assay software and data are compiled in Excel 2010 (Microsoft, Seattle, Wash., U.S.A.).
(§3) Compound stocks are routinely made by the Gilead Sample Bank in vials to 10 mM in dimethyl sulfoxide (DMSO). In some cases, when compounds are not soluble in DMSO, they are made in 100% ethanol. Stocks are sonicated as necessary. The extracellular solution for screening Late INa is composed of: 140 mM NaCl, 4 mM KCl, 1.8 mM CaCl2, 1 mM MgCl2, 10 mM HEPES and 10 mM Dextrose with pH adjusted to 7.35 using NaOH. The intracellular solution contains: 105 mM CsF, 20 mM CsCl, 10NaF, 2 mM EGTA, 10 mM HEPES and 10 mM Dextrose with pH adjusted to 7.35 with CsOH. Compounds are diluted in extracellular solution using a MicroLab Nimbus (Hamilton Robotics, Reno, Nev.) to between 0.3 and 3 μM in glass vials and transferred to glass well plates before robotic addition to the cells. The 0 mM Na extracellular solution (0Na-ECF) used at the end of each experiment for the Late INa and Peak INa assays to measure baseline current contains: 140 Choline-Cl; 4 mM KCl, 1.8 mM CaCl2; 1 mM MgCl2; 10 mM HEPES and 10 mM Dextrose with pH was adjusted to 7.35 with CsOH.
Compounds were evaluated for their effect Nav1.5 Peak INa. It is contemplated that the compounds of Formula I avoid significant block of peak INa. Since the peak INa in the cells used herein can be very large, introducing artifacts in the recording, the concentration of Na^+ in the bath can be reduced to 40 mM by isosmotic replacement of Na^+ with Choline (see below).
Tonic Block (TB) of Peak INa was measured using a voltage step to −20 mV from a holding potential of −100 mV at a low stimulation frequency of 0.1 Hz. Use-Dependent Block (UDB) of Peak INa was measured during pulse number 50 of a pulse train (−20 mV, 20 ms, 50 pulses, 3 Hz) from a holding potential of −100 mV.
The extracellular solution for screening Peak INa is composed of: 40 mM NaCl, 100 mM Choline-Cl, 4 mM KCl, 1.8 mM CaCl2, 1 mM MgCl2 10 mM HEPES and 10 mM Dextrose with pH adjusted to 7.35 using NaOH. The intracellular solution used for the Peak INa assay is the same as outlined for the Late INa assay (see above).
After establishing the whole cell recording configuration, channels were stimulated to open with low frequency (0.1 Hz) so that the recording can be monitored and the extent to which the recording has stabilized can be assessed.
The test compound is then applied at 1 or 3 μM and was added 2 times at 60 second intervals. After the second compound addition, a 200 second wait period was imposed to allow for equilibration. Voltage protocols for TB and UDB are were performed in the absence and presence of compound and TB and UDB are calculated with respect to the compound free condition. Both TB and UDB were analyzed by incorporating rundown correction for the peak INa.

The target in assay [2] is T1, wild-type human cardiac sodium channel, hNav1.5. As to the kind of experiment: Late INa screening assay (QPatch whole cell patch clamp, Tefluthrin-induced late current). As to conditions: HEK293 hNav1.5, percent block of late INa. How it is done: as §1, §2, §3
For the Late INa assay, sodium channels are activated every 10 seconds (0.1 Hz) by depolarizing the cell membrane to −20 mV for 250 milliseconds (ms) from a holding potential of −120 mV.
Compounds were tested to determine their activity in blocking the late sodium current. Late INa was generated by adding 10 μM Tefluthrin (pyrethroid) to the extracellular solution. For the purposes of the screening, Late INa is defined as the mean current between […] during the voltage step to −20 mV. After establishing the whole cell recording configuration, Late INa activator is added to each well 4 times over a 15 minute period so that the late component of the Na current reaches a stable value. Compounds were then added (typically at 0.3 or 1 μM), in the presence of the Late Na^+ activator, with 3 additions over the course of 5 minutes. Measurements were made at the end of exposure to the third compound addition and values were normalized to the current level when all Na^+ was removed from the extracellular solution after two additions of 0Na-ECF.
Results are reported as percent block of late INa and results were analyzed by incorporating rundown correction for the Late INa.
(The patch-clamp technique gives a direct electrical read-out from membranes.)

Assay [3] concerns the target hNav1.1 (SCN1A) (Homo sapiens, UniProt P35498). The experiment in a line: Use-dependent inhibition of the CNS Nav1.1 sodium channel. As to conditions: use-dependent block, 25 Hz, pulse 20, read-out: Nav1.1 UDB 25 Hz 10 uM. How it is done:
HEK-293 cells stably expressing wild-type (WT) hNav1.1 (SCN1A, NCBI# AB09354) were obtained from Millipore (Cat. # CYL3009) were used to record INa. Cells are maintained with standard tissue culture procedures and stable channel expression is maintained with 400 ug/mL G418 in the culture medium. Unless otherwise noted, all reagents are purchased from Sigma-Aldrich (St Louis, Mo., U.S.A.).
Assays measuring Use-Dependent Block (UDB) of Nav1.2 are performed on an automated electrophysiology platform, QPatch 16X or QPatch HT (Sophion Bioscience, Copenhagen, Denmark), using the whole cell patch clamp technique to measure currents through the cell membrane. Series resistance compensation is set to 100% and series resistance and whole-cell compensation are performed automatically. Currents stored in the Sophion Bioscience Oracle database (Sophion Bioscience, Copenhagen, Denmark). Analysis is performed using QPatch Assay software and data are compiled in Excel 2010 (Microsoft, Seattle, Wash., U.S.A.).
The internal (pipette) solution consists of (in mM) 105 CsF, 10 NaF, 20 CsCl, 2 EGTA, 10 HEPES, 10 Dextrose with a pH of 7.35 and osmolarity of 300 mOsmol/kg. The external (bath) solution contains in (mM): 145 NaCl, 4 KCl, 1.8 CaCl2, 1 MgCl2, 10 dextrose, 10 HEPES, with a pH of 7.35 and osmolarity of 310 mOsmol/kg. Experiments are carried out at 23-25° C.
Compound stocks are routinely made by the Gilead Sample Bank in vials to 10 mM in dimethyl sulfoxide (DMSO). In some cases, when compounds are not soluble in DMSO, they are made in 100% ethanol. Stocks are sonicated as necessary. […]
Cells are allowed to stabilize for 10 min after establishment of the whole-cell configuration before current is measured. The test compound is applied 2 times at 60 second intervals. After the second compound addition, a 200 second wait period was imposed to allow for equilibration. Leak currents are subtracted by using an online P/4 procedure and all currents are low-pass Bessel filtered at 5 kHz and digitized at […].
Use-dependent block of Nav1.2 peak current is measured during pulse number 20 of a voltage pulse train (0 mV, 20 ms, 20 pulses, 25 Hz) from a holding potential of −120 mV. Currents are normalized to the peak current recorded in response to the first pulse in each frequency train. The voltage protocol for UDB was performed in the absence and presence of compound and percentage inhibition was calculated with respect to the compound free condition. Results are presented as mean percentage inhibition and data analysis is performed using QPatch Assay Software 4.0, and Excel 2002 (Microsoft, Seattle, Wash., U.S.A.).

[4] abbreviates: tonic block of Peak INa, 0.1 Hz, holding -100 mV, read-out: Peak TB 3 uM.
The mark [5] stands for this setting: use-dependent block of Peak INa, 3 Hz, pulse 50, read-out: Peak UDB 3 Hz 3 uM.

SMILES strings stand for the structures. Read-outs that look alike come from different tables or passages of the source.

Results on 9 compounds are retold here after patent publication US9416115B2, “Fused heterocyclic compounds as ion channel modulators” (Gilead Sciences, Inc., priority 2013, dated 2016).

T1 sequence (Q14524 whole entry): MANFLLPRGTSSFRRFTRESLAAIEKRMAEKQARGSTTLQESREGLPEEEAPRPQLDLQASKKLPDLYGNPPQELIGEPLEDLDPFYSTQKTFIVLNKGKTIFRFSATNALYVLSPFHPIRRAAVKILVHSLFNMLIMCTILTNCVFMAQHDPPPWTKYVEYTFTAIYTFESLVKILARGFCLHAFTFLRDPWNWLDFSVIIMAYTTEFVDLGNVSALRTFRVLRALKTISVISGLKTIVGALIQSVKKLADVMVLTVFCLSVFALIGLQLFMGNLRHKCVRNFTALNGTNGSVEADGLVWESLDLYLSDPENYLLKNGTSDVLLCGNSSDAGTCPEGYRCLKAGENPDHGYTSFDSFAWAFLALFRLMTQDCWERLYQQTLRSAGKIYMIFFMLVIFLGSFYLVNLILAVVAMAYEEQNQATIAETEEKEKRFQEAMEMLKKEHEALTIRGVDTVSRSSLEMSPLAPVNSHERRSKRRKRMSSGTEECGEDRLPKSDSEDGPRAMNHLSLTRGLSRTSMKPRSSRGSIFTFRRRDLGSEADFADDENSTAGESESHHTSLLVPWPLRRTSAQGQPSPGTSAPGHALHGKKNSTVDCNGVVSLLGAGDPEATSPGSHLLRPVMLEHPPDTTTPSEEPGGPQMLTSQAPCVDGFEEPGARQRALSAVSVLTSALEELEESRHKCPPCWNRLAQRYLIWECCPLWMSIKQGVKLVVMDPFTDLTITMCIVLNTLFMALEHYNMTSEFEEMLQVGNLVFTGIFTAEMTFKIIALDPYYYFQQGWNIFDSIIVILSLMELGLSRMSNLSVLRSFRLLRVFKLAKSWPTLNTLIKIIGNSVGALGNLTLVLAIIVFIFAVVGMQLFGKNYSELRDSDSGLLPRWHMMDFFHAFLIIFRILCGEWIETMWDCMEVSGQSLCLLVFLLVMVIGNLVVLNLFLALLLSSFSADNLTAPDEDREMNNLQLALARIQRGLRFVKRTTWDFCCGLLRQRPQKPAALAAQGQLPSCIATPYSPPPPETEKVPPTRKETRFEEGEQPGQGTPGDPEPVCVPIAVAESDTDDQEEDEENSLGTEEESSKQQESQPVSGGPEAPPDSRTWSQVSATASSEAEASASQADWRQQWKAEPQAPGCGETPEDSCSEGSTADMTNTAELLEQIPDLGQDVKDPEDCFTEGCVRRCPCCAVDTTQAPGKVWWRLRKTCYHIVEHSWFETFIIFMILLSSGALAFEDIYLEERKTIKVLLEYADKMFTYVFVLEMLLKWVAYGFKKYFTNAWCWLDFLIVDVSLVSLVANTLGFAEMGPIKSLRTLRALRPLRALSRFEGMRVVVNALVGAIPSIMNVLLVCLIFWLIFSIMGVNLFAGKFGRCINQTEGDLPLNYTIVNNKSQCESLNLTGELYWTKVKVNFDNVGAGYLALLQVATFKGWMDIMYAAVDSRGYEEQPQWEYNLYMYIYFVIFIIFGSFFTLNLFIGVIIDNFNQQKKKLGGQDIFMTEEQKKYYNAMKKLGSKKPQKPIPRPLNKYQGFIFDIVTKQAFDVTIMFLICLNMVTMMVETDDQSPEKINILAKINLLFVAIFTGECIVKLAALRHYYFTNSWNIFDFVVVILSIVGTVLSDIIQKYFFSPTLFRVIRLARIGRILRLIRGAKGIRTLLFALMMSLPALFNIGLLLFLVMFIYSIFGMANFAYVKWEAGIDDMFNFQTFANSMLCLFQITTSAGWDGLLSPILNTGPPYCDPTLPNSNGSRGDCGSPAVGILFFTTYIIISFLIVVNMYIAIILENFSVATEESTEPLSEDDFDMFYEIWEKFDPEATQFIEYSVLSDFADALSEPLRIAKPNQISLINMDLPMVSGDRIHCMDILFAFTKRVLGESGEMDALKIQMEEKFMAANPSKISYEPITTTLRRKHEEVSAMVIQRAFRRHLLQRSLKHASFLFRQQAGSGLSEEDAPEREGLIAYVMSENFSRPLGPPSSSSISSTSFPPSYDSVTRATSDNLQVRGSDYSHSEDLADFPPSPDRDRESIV

Consider `Fc1cc(OC(F)(F)F)ccc1-c1ccc2onc(OCc3ncccn3)c2c1` [Example 2, 5-(2-fluoro-4-(trifluoromethoxy)phenyl)-3-(pyrimidin-2-ylmethoxy)benzo[d]isoxazole], for which the values for the inhibition at 3 µM in assay [1] (setting [4]) and in assay [1] (setting [5]) were 66.1% and 27.9%, respectively. In addition, the inhibition at 1 µM in assay [2] is 54.6%.
For the compound `O=C1CC(COc2noc3ccc(-c4ccc(OC(F)(F)F)cc4)cc23)CN1` (stereo not drawn) [Example 46, 4-(((5-(4-(trifluoromethoxy)phenyl)benzo[d]isoxazol-3-yl)oxy)methyl)pyrrolidin-2-one], the inhibition at 10 µM in assay [3] is 78.4%. The values for the inhibition at 3 µM in assay [1] (setting [4]) and in assay [1] (setting [5]) were 23.7% and 13.9%, respectively. In addition, the inhibition at 1 µM in assay [2] worked out at 36.8%.
For the compound `FC(F)(F)Oc1ccc(-c2ccc3onc(OCCn4ccnc4)c3c2)cc1` [Example 55, 3-(2-(1H-imidazol-1-yl)ethoxy)-5-(4-(trifluoromethoxy)phenyl)benzo[d]isoxazole], the inhibition at 10 µM in assay [3] was 79.8%. Besides, the inhibition at 3 µM in assay [1] (setting [4]) was found to be 15.1%. Besides, the inhibition at 3 µM in assay [1] (setting [5]) was 5.13%. Besides, in assay [2], the inhibition at 0.3 µM was found to be 45.4% and the inhibition at 1 µM was determined as 59.9%.
On to `CN1CC(COc2noc3ccc(-c4ccc(OC(F)(F)F)cc4)cc23)CC1=O` (stereo not drawn) [Example 56, 1-methyl-4-(((5-(4-(trifluoromethoxy)phenyl)benzo[d]isoxazol-3-yl)oxy)methyl)pyrrolidin-2-one], for which the inhibition at 10 µM in assay [3] came to 83.6%. Further, the inhibition at 3 µM in assay [1] (setting [4]) came to 30.4%. The inhibition at 3 µM in assay [1] (setting [5]) came out at 31.4%. Also, in assay [2], the inhibition at 0.3 µM came to 16.1% and the inhibition at 1 µM is 57.8%.
With `Cc1nccn1CCOc1noc2ccc(-c3ccc(OC(F)(F)F)cc3)cc12` [Example 57, 3-(2-(2-methyl-1H-imidazol-1-yl)ethoxy)-5-(4-(trifluoromethoxy)phenyl)benzo[d]isoxazole], the inhibition at 10 µM in assay [3] came to 82.5%. Moreover, the inhibition at 3 µM in assay [1] (setting [4]) came out at 22.1%. Also, the inhibition at 3 µM in assay [1] (setting [5]) stood at 37.1%. In assay [2], this compound displayed an inhibition at 0.3 µM of 17% and an inhibition at 1 µM of 57.3%.
As to `Cc1cc(-c2ccc(OC(F)(F)F)cc2)cc2c(OCCN3CCCC3=O)noc12` [Example 88, 1-(2-((7-methyl-5-(4-(trifluoromethoxy)phenyl)benzo[d]isoxazol-3-yl)oxy)ethyl)pyrrolidin-2-one], in assay [3], the inhibition at 10 µM was determined as 66.7%. The inhibition at 3 µM in assay [1] (setting [4]) is 20.8%; in assay [1] (setting [5]), 19.5%. In assay [2], this compound registered an inhibition at 1 µM of 47.7%.
For the compound `FC(F)(F)Oc1ccc(-c2ccc3onc(OC[C@@H]4CCCN4)c3c2)cc1` [Example 108, (S)-3-(pyrrolidin-2-ylmethoxy)-5-(4-(trifluoromethoxy)phenyl)benzo[d]isoxazole], the inhibition at 10 µM in assay [3] was 89.2%. In addition, the inhibition at 3 µM in assay [1] (setting [4]) was 62.6%. In addition, in assay [1] (setting [5]), the inhibition at 3 µM turned out to be 69.3%. In assay [2], this compound returned an inhibition at 0.3 µM of 30.1% and an inhibition at 1 µM of 83.5%.
Take `FC(F)(F)Oc1ccc(-c2ccc3onc(Oc4ccccn4)c3c2)cc1` [Example 125, 3-(pyridin-2-yloxy)-5-(4-(trifluoromethoxy)phenyl)benzo[d]isoxazole]: the inhibition at 10 µM in assay [3] was under 5%. In assay [2], the inhibition at 1 µM was determined as 41.8%.
For the compound `Cc1cccc(CNc2noc3ccc(-c4ccc(OC(F)(F)F)cc4)cc23)n1` [Example 129, N-((6-methylpyridin-2-yl)methyl)-5-(4-(trifluoromethoxy)phenyl)benzo[d]isoxazol-3-amine], the inhibition at 10 µM in assay [3] turned out to be 33.5%. In assay [2], this compound had an inhibition at 0.3 µM of 34.3% and an inhibition at 1 µM of 67.5%.
